Values after ≈ are worked out from the molar mass of the structure shown. Read-outs that look alike come from different tables or passages of the source.
Experiments:
[1] = system: SMMC-7721 human hepatic cancer cell strain; test: modified MTT in vitro screening, SMMC-7721; format: cell-based
Text: (§1) 1. Screening research in vitro, employing modified MTT of anticancer substance activity. Cancer Cell Strain: [table]

[2] = system: A549 human lung cancer cell strain; test: modified MTT in vitro screening, A549; format: cell-based; settings: for IC50: A549
Text: as §1

[3] = system: HEP-2 human laryngeal cancer cell strain; test: modified MTT in vitro screening, HEP-2; format: cell-based
Text: as §1

[4] = system: GLC-15 human lung cancer cell strain; test: modified MTT in vitro screening, GLC-15; format: cell-based
Text: as §1

mouse H22 liver cancer = test: curative effect on mouse H22 liver cancer in vivo
Protocol: (§2) After inoculating Kunming murine for H22 hepatic cancer and murine Lewis lung cancer, three kinds of preparation, i.e., suspension, emulsion, and lyophilized preparation, are administrated in three different ways of administration comprising gastric perfusion, intraperitoneal injection and intravenous injection, and the administration dose is high, middle and low respectively. Then the curative effect is compared with positive control group and the tumour inhibition efficiency is calculated, and the results are shown as follows: […]

[5] = animal body weight, Lewis lung cancer mice; format: in vivo, mouse
Text: After inoculating Kunming murine for H22 hepatic cancer and murine Lewis lung cancer, three kinds of preparation, i.e., suspension, emulsion, and lyophilized preparation, are administrated in three different ways of administration comprising gastric perfusion, intraperitoneal injection and intravenous injection, and the administration dose is high, middle and low respectively.

[6] = system: SGC-7901 human gastric cancer cell strain; test: modified MTT in vitro screening, SGC-7901; format: cell-based
Text: as §1

[7] = system: HL60 human leukemia cell strain; test: modified MTT in vitro screening, HL60; format: cell-based
Text: as §1

[8] = system: PC-3 human prostate cancer cell strain; test: modified MTT in vitro screening, PC-3; format: cell-based
Text: as §1

mouse Lewis lung cancer = test: curative effect on mouse Lewis lung cancer in vivo
Protocol: as §2

[9] = mouse, in vivo
Protocol: as §2

[10] = system: Bel-7402 human hepatic cancer cell strain; test: modified MTT in vitro screening, Bel-7402; format: cell-based
Text: as §1

[11] = Homo sapiens, read-out: Ic 50 for the growth of tumour cells
[12] = emulsion, intravenous, 5 mg/kg/d ivx10qd
[13] = emulsion, intravenous, 10 mg/kg/d ivx10qd
[14] = emulsion, intravenous, 15 mg/kg/d ivx10qd
[15] = lyophilized preparation, intravenous, 5 mg/kg/d ivx10qd
[16] = lyophilized preparation, intravenous, 10 mg/kg/d ivx10qd
[17] = lyophilized preparation, intravenous, 15 mg/kg/d ivx10qd
[18] = suspension, gastric perfusion, 30 mg/kg/d igx10qd
[19] = suspension, gastric perfusion, 60 mg/kg/d igx10qd
[20] = suspension, gastric perfusion, 90 mg/kg/d igx10qd
[21] = suspension, intraperitoneal administration (igx10qd), 30 mg/kg/d
[22] = suspension, intraperitoneal administration (igx10qd), 60 mg/kg/d
[23] = suspension, intraperitoneal administration (igx10qd), 90 mg/kg/d
[24] = mouse, in vivo, iv, 5 mg/kg/day
[25] = mouse, in vivo, iv, 10 mg/kg/day
[26] = mouse, in vivo, iv, 15 mg/kg/day
[27] = Table VI, 7 mg/kg/d Ipx2, the first, third days

CC(=O)OC(C)(C)CCC(=O)[C@](C)(O)[C@H]1[C@H](O)C[C@@]2(C)[C@@H]3CC=C4[C@@H](C[C@H](O)[C@@H](O)C4(C)C)[C@]3(C)C(=O)C[C@]12C [Curcurbitacin IIa, dihydrocucurbitacin F-25-O-acetate]
IC50 [1, 11]: 22.3 µg/mL (≈ 39.6 µM)
IC50 ([2]; human lung cancer cells, read-out: Ic 50 for growth of the human lung cancer cells): 1.5 µg/mL (≈ 2.67 µM)
IC50 [2, 11]: 1.5 µg/mL (≈ 2.67 µM)
IC50 ([3]; Homo sapiens, HEp-2, read-out: Ic 50 for the growth of tumour cells): 15.8 µg/mL (≈ 28.1 µM)
IC50 [4, 11]: 14.6 µg/mL (≈ 25.9 µM)
Inhibition efficiency (mouse H22 liver cancer; [12]): 32.38
Tumour weight (g) X ± SD (mouse H22 liver cancer; [12]): 2.13 ± 0.20 g
Inhibition efficiency (mouse H22 liver cancer; [13]): 44.12
Tumour weight (g) X ± SD (mouse H22 liver cancer; [13]): 1.76 ± 0.08 g
Inhibition efficiency (mouse H22 liver cancer; [14]): 55.02
Tumour weight (g) X ± SD (mouse H22 liver cancer; [14]): 1.48 ± 0.11 g
Inhibition efficiency (mouse H22 liver cancer; [15]): 31.1
Tumour weight (g) X ± SD (mouse H22 liver cancer; [15]): 2.06 ± 0.18 g
Inhibition efficiency (mouse H22 liver cancer; [16]): 39.13
Tumour weight (g) X ± SD (mouse H22 liver cancer; [16]): 1.82 ± 0.19 g
Inhibition efficiency (mouse H22 liver cancer; [17]): 46.15
Tumour weight (g) X ± SD (mouse H22 liver cancer; [17]): 1.61 ± 0.18 g
Inhibition efficiency (mouse H22 liver cancer; [18]): 27.13
Tumour weight (g) X ± SD (mouse H22 liver cancer; [18]): 2.31 ± 0.21 g
Inhibition efficiency (mouse H22 liver cancer; [19]): 32.09
Tumour weight (g) X ± SD (mouse H22 liver cancer; [19]): 2.14 ± 0.20 g
Inhibition efficiency (mouse H22 liver cancer; [20]): 38.17
Tumour weight (g) X ± SD (mouse H22 liver cancer; [20]): 1.96 ± 0.16 g
Inhibition efficiency (mouse H22 liver cancer; [21]): 36.07
Tumour weight (g) X ± SD (mouse H22 liver cancer; [21]): 1.95 ± 0.12 g
Inhibition efficiency (mouse H22 liver cancer; [22]): 51.05
Tumour weight (g) X ± SD (mouse H22 liver cancer; [22]): 1.49 ± 0.12 g
Inhibition efficiency (mouse H22 liver cancer; [23]): 57.05
Tumour weight (g) X ± SD (mouse H22 liver cancer; [23]): 1.31 ± 0.12 g
Animal body weight (g) Start ([5]; mouse, in vivo, 5 mg/kg/day): 18.1 g
Animal body weight (g) end ([5]; mouse, in vivo, 5 mg/kg/day): 20.5 g
Animal body weight (g) Start ([5]; mouse, in vivo, 10 mg/kg/day): 17.7 g
Animal body weight (g) end ([5]; mouse, in vivo, 10 mg/kg/day): 21.1 g
Animal body weight (g) Start ([5]; mouse, in vivo, 15 mg/kg/day): 18.0 g
Animal body weight (g) end ([5]; mouse, in vivo, 15 mg/kg/day): 20.7 g
Animal body weight (g) Start [5, 24]: 19.3 g
Animal body weight (g) end [5, 24]: 22.4 g
Animal body weight (g) Start [5, 25]: 19.1 g
Animal body weight (g) end [5, 25]: 22.9 g
Animal body weight (g) Start [5, 26]: 19.5 g
Animal body weight (g) end [5, 26]: 22.1 g
IC50 [6, 11]: 8.71 µg/mL (≈ 15.5 µM)
IC50 ([7]; Homo sapiens, HL-60, read-out: Ic 50 for the growth of tumour cells): 43.2 µg/mL (≈ 76.8 µM)
IC50 [8, 11]: 10.1 µg/mL (≈ 17.9 µM)
Inhibition efficiency (mouse Lewis lung cancer; [12]): 40.76
Tumour weight (g) X ± SD (mouse Lewis lung cancer; [12]): 1.69 ± 0.11 g
Inhibition efficiency (mouse Lewis lung cancer; [13]): 47.37
Tumour weight (g) X ± SD (mouse Lewis lung cancer; [13]): 1.50 ± 0.14 g
Inhibition efficiency (mouse Lewis lung cancer; [14]): 59.30
Tumour weight (g) X ± SD (mouse Lewis lung cancer; [14]): 1.16 ± 0.16 g
Tumour weight (g) X ± SD (mouse Lewis lung cancer; lyophilized preparation, 5 mg/kg/d ivx10qd): 1.56 ± 0.14 g
Tumour weight (g) X ± SD (mouse Lewis lung cancer; lyophilized preparation, 10 mg/kg/d ivx10qd): 1.34 ± 0.18 g
Tumour weight (g) X ± SD (mouse Lewis lung cancer; lyophilized preparation, 15 mg/kg/d ivx10qd): 1.20 ± 0.20 g
Inhibition efficiency (mouse Lewis lung cancer; lyophilized preparation, hypodermic inoculation, 5 mg/kg/d ivx10qd): 36.33
Inhibition efficiency (mouse Lewis lung cancer; lyophilized preparation, hypodermic inoculation, 10 mg/kg/d ivx10qd): 45.31
Inhibition efficiency (mouse Lewis lung cancer; lyophilized preparation, hypodermic inoculation, 15 mg/kg/d ivx10qd): 51.20
Animal body weight (g) Start ([9]; 30 mg/kg/day): 19.0 g
Animal body weight (g) end ([9]; 30 mg/kg/day): 26.0 g
Animal body weight (g) Start ([9]; 60 mg/kg/day): 19.3 g
Animal body weight (g) end ([9]; 60 mg/kg/day): 26.3 g
Animal body weight (g) Start ([9]; 90 mg/kg/day): 19.1 g
Animal body weight (g) end ([9]; 90 mg/kg/day): 25.7 g
Animal body weight (g) end ([9]; iv, 10 mg/kg/day): 25.9 g
IC50 [10, 11]: > 100 µg/mL

N.N.[Cl][Pt][Cl] [DDP(Cisplatin), Cisplatin, reference compound]
Ic 50 for the growth of tumour cells [1]: 0.21 µg/mL
Ic 50 for growth of the human lung cancer cells ([2]; human lung cancer cells): 1.6 µg/mL
Ic 50 for the growth of tumour cells ([3]; HEP-2): 0.3 µg/mL
Ic 50 for the growth of tumour cells [4]: 1.72 µg/mL
Animal body weight (g) end ([5]; Table VI, 7 mg/kg/d Ipx2, the first, third days, end): 18.1 g
Animal body weight (g) Start ([5]; Table VI, 7 mg/kg/d Ipx2, the first, third days, start): 18.4 g
Ic 50 for the growth of tumour cells [6]: 0.89 µg/mL
Ic 50 for the growth of tumour cells [7]: 0.695 µg/mL
Ic 50 for the growth of tumour cells [8]: 1.85 µg/mL
Inhibition efficiency (mouse Lewis lung cancer; [27]): 92.98
Tumour weight (g) X ± SD (mouse Lewis lung cancer; [27]): 0.172 ± 0.06 g
Ic 50 for the growth of tumour cells [10]: 2.31 µg/mL

Source: patent US20100168451A1, “PREPARATIVE METHOD OF DIHYDROCUCURBITACIN F-25-O-ACETATE AND THE USE THEREOF IN THE MANUFACTURE OF MEDICAMENTS FOR TREATING CANCERS” (priority 2007, published 2010)
